Assays:
[1] = system: collagen type X (Col10a1) expression in mouse chondrogenic ATDC5 cells; assay: Chondrocyte hypertrophic differentiation in mouse chondrogenic ATDC5 cells (collagen type X expression); assay type: cell-based; details: Col10a1 expression by quantitative real-time PCR after two weeks of cell culture; read-out: IC50 values for the inhibition of collagen type X expression in mouse chondrogenic ATDC5 cells
Text: D) Determination of the effect on chondrocyte hypertrophic differentiation in mouse chondrogenic ATDC5 cells
The ATDC5 cell assay was used as in vitro model to determine the effects of the compounds of the invention on chondrocyte hypertrophic differentiation by monitoring the expression levels of collagen type X (Col10a1) as specific marker of chondrocyte hypertrophy.
Background: ATDC5 cells are a clonal mouse embryonic cell line derived from multipotent AT805 teratocarcinoma cells (Atsumi, T. et al., A chondrogenic cell line derived from a differentiating culture of AT805 teratocarcinoma cells, Cell Differ. Dev. 1990, 30, 109-116). The cells can undergo insulin-dependent chondrogenic cell differentiation entailing distinct differentiation stages starting from an undifferentiated, subconfluent stage, a condensation stage, a cartilage nodule formation stage and a calcification stage within 45 days of in vitro culture. Chondrogenic differentiation can be shown by measuring the expression of the cartilage main collagen (Col2a1) and aggrecan (AGC1) and glycosaminoglycan-staining with Alcian Blue within two weeks after insulin-triggered differentiation, and hypertrophic differentiation can be monitored by the expression of collagen type X (Col10a1), a specific marker of chondrocyte hypertrophy within 21 days of in vitro culture. (Shukunami, C. et al., Chondrogenic Differentiation of Clonal Mouse Embryonic Cell Lne ATDC5 In Vitro: Differentiation-dependent Gene Expression of Parathyroid Hormone (PTH)/PTH-related Peptide Receptor, J. Cell Biol. 1996, 133, 457-468). Growth factor BMP-2 is known to stimulate cell differentiation and can stimulate early and late-phase ATDC5 differentiation (Shukunami, C. et al., Sequential Progression of the Differentiation Program by Bone Morphogenetic Protein-2 in Chondrogenic Cell Line ATDC5, Exp. Cell Res. 1998, 241, 1-11). Thyroid hormone triiodothyronine (T3) promotes hypertrophic differentiation of growth plate chondrocytes (Robson, H. et al., Thyroid Hormone Acts Directly on Growth Plate Chondrocytes to Promote Hypertrophic Differentiation and Inhibit Clonal Expansion and Cell Proliferation, Endocrinology 2000, 141, 3887-3897). Addition of BMP2 and T3 can accelerate ATDC5 hypertrophic differentiation leading to the strong induction Col10a1 expression between 10-14 days. SGK-inhibitors were added to differentiating ATDC5 cells for 14 days and Col10a1 gene expression was quantified to determine effects on chondrocyte hypertrophic differentiation.
Cell assay description: ATDC5 cells were maintained in 300 cm^2 tissue culture flasks in DMEM/Ham's F12+5% FCS supplemented with 10 μg/ml human transferrin, 30 nM sodium selenite, 50 μg/ml kanamycin and grown at 37° C. in 5% CO2 in 95% air. To initiate cell differentiation, 9.9×10^4 cells were plated in 24 well plates and grown for 2 days. Medium was exchanged with DMEM/Ham's F12+5% FCS supplemented with 10 μg/ml human transferrin, 30 nM sodium selenite, 50 μg/ml ascorbic acid and 1 μg/ml BMP2. The assay was run in triplicates, compounds were added in […], and medium changed every 2-3 days including supplementation of compound. At day 7 after initiation of cell differentiation, 1 μM T3 was used as additional supplement in the cell culture.
After two weeks of cell culture, RNA was isolated and converted to cDNA for determination of gene expression by quantitative real-time PCR. Cells were lysed in 600 μl of RLT-buffer (Qiagen) and total RNA was isolated using the RNA-easy Mini RNA isolation Kit (Qiagen) which was run on a Qiacube system (Qiagen) according to the supplier's instructions. RNA was isolated in 30 μl of pure water and the RNA content measured by UV-spectroscopy (Nanodrop, Peqlab). For cDNA synthesis 50 ng total RNA was reverse transcribed using the High Capacity cDNA Reverse Transcription Kit (Applied Biosystems, Product Number 4368813) according to the manufacturer's instructions. […]

[2] = target: recombinant human SGK-1 enzyme (Homo sapiens, UniProt O00141); assay: Enzymatic activity assay: SGK-1 substrate peptide phosphorylation (Caliper lab-chip mobility shift); assay type: biochemical; details: peptide substrate 1 μM, ATP 10 μM, 60 min at 37° C., read-out: IC50 values for inhibition of SGK-1 enzymatic activity
recombinant human SGK-1 enzyme, sequence (O00141 whole entry, looked up): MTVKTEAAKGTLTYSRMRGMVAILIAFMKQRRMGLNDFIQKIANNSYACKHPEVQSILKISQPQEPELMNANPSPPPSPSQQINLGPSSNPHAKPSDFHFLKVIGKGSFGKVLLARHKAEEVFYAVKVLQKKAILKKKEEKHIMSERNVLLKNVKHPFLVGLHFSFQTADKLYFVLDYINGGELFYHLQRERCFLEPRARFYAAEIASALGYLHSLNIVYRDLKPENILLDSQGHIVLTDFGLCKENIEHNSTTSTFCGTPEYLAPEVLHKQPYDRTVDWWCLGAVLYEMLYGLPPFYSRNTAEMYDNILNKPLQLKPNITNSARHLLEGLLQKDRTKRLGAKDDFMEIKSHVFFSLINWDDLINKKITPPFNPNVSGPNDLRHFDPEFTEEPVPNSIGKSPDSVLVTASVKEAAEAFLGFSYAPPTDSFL

[3] = system: SGK-1 dependent phosphorylation of GSK3beta in U2OS cells; assay: SGK-1 dependent phosphorylation of GSK3beta in U2OS cells overexpressing recombinant SGK-1 and GSK3beta; assay type: cell-based, human; details: U2OS cells, 6 h incubation, ratio of phosphorylated GSK3beta to total GSK3beta; read-out: IC50 values for inhibition of SGK-1 dependent phosphorylation of GSK3beta in U2OS cells

| Structure (SMILES) | IC50 [1] [nM] | IC50 [2] [nM] | IC50 [3] [nM] |
| --- | --- | --- | --- |
| Cc1ccc(C#N)c(S(=O)(=O)Nc2ccc(-c3nc(OCCCO)c4c(C)n[nH]c4n3)cc2)c1 [Example 380] | 120 | 12 | – |
| Cc1ccc(C#N)c(S(=O)(=O)Nc2ccc(-c3nc(OC4CCC(O)CC4)c4c(C)n[nH]c4n3)cc2)c1 (stereo not shown) [Example 96] | 33 | < 1.5 | 740 |
| Cc1ccc(C#N)c(S(=O)(=O)Nc2ccc(-c3ncc4c(N)n[nH]c4n3)cc2)c1 [Example 453] | 550 | 1.6 | 2100 |
| COCCCN1CCC(Oc2nc(-c3ccc(NS(=O)(=O)c4cc(F)ccc4F)cc3)nc3[nH]nc(C)c23)CC1 [Example 397] | 92 | 8.2 | – |
| Cc1n[nH]c2nc(-c3ccc(NS(=O)(=O)c4cc(F)ccc4F)cc3)nc(OC3CCN(CCF)CC3)c12 [Example 344] | 16 | 5 | – |
| CCOc1nc(-c2ccc(NS(=O)(=O)c3cc(Cl)ccc3Cl)cc2)nc2[nH]nc(C)c12 [Example 426] | 60 | 11 | – |
| COCCCN1CCC(Oc2nc(-c3ccc(NS(=O)(=O)c4cc(F)ccc4F)cc3)nc3[nH]ncc23)CC1 [Example 394] | 290 | 120 | – |
| Cc1n[nH]c2nc(-c3ccc(NS(=O)(=O)c4cc(F)ccc4F)cc3)nc(OC3CCN(C4CCC4)CC3)c12 [Example 398] | 7.2 | 25 | – |
| CC(C)COc1nc(-c2ccc(NS(=O)(=O)c3cc(F)ccc3F)cc2)nc2[nH]nc(N)c12 [Example 328] | 94 | 170 | 150 |
| Cc1n[nH]c2nc(-c3ccc(NS(=O)(=O)c4cc(Cl)ccc4F)cc3)nc(OCCCO)c12 [Example 391] | 120 | 9.6 | – |
| O=S(=O)(Nc1ccc(-c2nc(OC3CCC(O)CC3)c3cn[nH]c3n2)cc1F)c1cc(Cl)ccc1Cl (stereo not shown) [Example 439] | 44 | 2.5 | 110 |
| Cc1nc(-c2ccc(NS(=O)(=O)c3cc(Cl)ccc3C#N)cc2)nc2[nH]nc(N)c12 [Example 465] | 700 | < 1.5 | 1200 |
| O=S(=O)(Nc1ccc(-c2nc(O[C@H]3CC[C@@H](O)CC3)c3cn[nH]c3n2)cc1)c1cc(Cl)ccc1F [Example 79] | 25 | – | – |
| CCN1CCCC(Oc2nc(-c3ccc(NS(=O)(=O)c4cc(Cl)ccc4Cl)cc3)nc3[nH]nc(C)c23)C1 (stereo not shown) [Example 422] | 110 | 40 | – |
| Cc1n[nH]c2nc(-c3ccc(NS(=O)(=O)c4cc(Cl)ccc4Cl)cc3)nc(OCCCO)c12 [Example 378] | 57 | 5.8 | – |
| Cc1nc(-c2ccc(NS(=O)(=O)c3cc(Cl)ccc3Cl)cc2)nc2[nH]nc(N3CCC4(CC3)COC4)c12 [Example 496] | 140 | 6.2 | 7000 |
| CCOc1nc(-c2ccc(NS(=O)(=O)c3cc(Cl)c(F)cc3F)cc2)nc2[nH]nc(N)c12 [Example 451] | 10 | 0.57 | – |

| Structure (SMILES) | IC50 [1] [nM] | IC50 [2] [nM] | IC50 [3] [nM] |
| --- | --- | --- | --- |
| CCN1CCCC(Oc2nc(-c3ccc(NS(=O)(=O)c4cc(OC)ccc4F)cc3)nc3[nH]nc(C)c23)C1 (stereo not shown) [Example 424] | 62 | 13 | – |
| COc1ccc(F)c(S(=O)(=O)Nc2ccc(-c3nc(OC4CCN(C(C)C)CC4)c4c(C)n[nH]c4n3)cc2)c1 [Example 357] | 61 | 3.6 | – |
| CCN1CCCC(Oc2nc(-c3ccc(NS(=O)(=O)c4cc(Cl)ccc4F)cc3)nc3[nH]nc(C)c23)C1 (stereo not shown) [Example 418] | 30 | 40 | – |
| O=S(=O)(Nc1ccc(-c2nc(OC3CCC(O)CC3)c3cn[nH]c3n2)cc1F)c1cc(Cl)ccc1F (stereo not shown) [Example 440] | 81 | < 1.5 | 240 |
| Cc1ccc(F)c(S(=O)(=O)Nc2ccc(-c3nc(OC4CCN(C(C)C)CC4)c4c(C)n[nH]c4n3)cc2)c1 [Example 353] | 21 | 3.8 | – |
| O=S(=O)(Nc1ccc(-c2nc(OCCO)c3cn[nH]c3n2)cc1)c1cc(Cl)ccc1F [Example 32] | 280 | 5.1 | – |
| Cc1n[nH]c2nc(-c3ccc(NS(=O)(=O)c4cc(Cl)ccc4Cl)cc3)nc(OC3CCCNC3)c12 (stereo not shown) [Example 322] | 8 | 2.6 | 26 |
| Cc1n[nH]c2nc(-c3ccc(NS(=O)(=O)c4cc(F)ccc4F)cc3)nc(OC3CCCNC3)c12 (stereo not shown) [Example 321] | 680 | 6.9 | 38 |
| CC(=O)N1CCC(Oc2nc(-c3ccc(NS(=O)(=O)c4cc(Cl)ccc4F)cc3)cc3[nH]nc(C)c23)CC1 [Example 646] | 340 | 11 | – |
| O=S(=O)(Nc1ccc(-c2nc(OCC3CNCCO3)c3cn[nH]c3n2)cc1)c1cc(Cl)ccc1F (stereo not shown) [Example 305] | – | 10 | 89 |
| CC(C)Oc1nc(-c2ccc(NS(=O)(=O)c3cc(Cl)ccc3Cl)cc2)nc2[nH]nc(N)c12 [Example 335] | – | 8.3 | 350 |
| Cc1n[nH]c2nc(-c3ccc(NS(=O)(=O)c4cc(Cl)ccc4Cl)cc3)nc(OC3CCN(C(C)C)CC3)c12 [Example 351] | 43 | 3.8 | – |
| CC(C)COc1nc(-c2ccc(NS(=O)(=O)c3cccc(F)c3Cl)cc2)nc2[nH]nc(N)c12 [Example 324] | – | 330 | 330 |
| Cc1nc(-c2ccc(NS(=O)(=O)c3cccc(Cl)c3C#N)cc2)nc2[nH]nc(N)c12 [Example 470] | – | 11 | 2000 |
| N#Cc1ccc(Cl)cc1S(=O)(=O)Nc1ccc(-c2nc(OC3CNC3)c3cn[nH]c3n2)cc1 [Example 191] | – | 21 | 2700 |
| O=S(=O)(Nc1ccc(-c2nc(O[C@H]3CCCC(O)C3)c3cn[nH]c3n2)cc1)c1cc(Cl)ccc1Cl (stereo partly shown) [Example 85] | – | 4.1 | 1500 |
| COc1ccc(F)c(S(=O)(=O)Nc2ccc(-c3nc(OC4CNC4)c4cn[nH]c4n3)cc2)c1 [Example 192] | – | 2.8 | 140 |
